Measurements from patent US11958871B2, “Inhibitors of bacterial glutaminyl cyclases for use in the treatment of periodontal and related diseases” (FRAUNHOFER-GESELLSCHAFT ZUR FÖRDERUNG DER ANGEWANDTEN …, priority 2018, dated 2024).
Read-outs that look alike come from different tables or passages of the source.

Tests used:
Assay type in all cases: biochemical
PgQC = PgQC (Porphyromonas gingivalis, UniProt Q7MT37); assay: Inhibitor assay for bacterial glutaminyl cyclase activity (fluorometric, H-Gln-AMC), PgQC
Chain of PgQC (Q7MT37 22-333 limits assumed): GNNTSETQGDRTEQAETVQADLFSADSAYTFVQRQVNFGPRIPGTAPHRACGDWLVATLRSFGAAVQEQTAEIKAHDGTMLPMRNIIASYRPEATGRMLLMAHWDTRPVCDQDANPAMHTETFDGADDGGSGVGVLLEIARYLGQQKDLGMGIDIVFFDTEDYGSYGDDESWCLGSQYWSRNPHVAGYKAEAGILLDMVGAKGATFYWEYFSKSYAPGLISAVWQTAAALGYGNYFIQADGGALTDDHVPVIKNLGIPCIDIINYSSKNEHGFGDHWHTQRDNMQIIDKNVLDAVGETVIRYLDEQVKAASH
Method: (§1) QC activity was evaluated using H-Gln-AMC as the substrate (as previously described in Schilling et al., 2002).
(§2) The assay consists of varying concentration of the fluorogenic substrate and 0.5 U pyroglutaminyl aminopeptidase in 50 mM Tris-HCl, 50 mM NaCl at pH 8.0. After 10 minute incubation time at 30° C. reaction was initiated by addition of bacQC to a final volume of 125 μl reaction mixture. The excitation/emission wavelength was 380/460 nm. bacQC activity was determined from a standard curve of the fluorophore AMC under assay conditions. All determinations were carried out in 96 well microtiter plates (Fisher Scientific) at 30° C. using the FluoStar Optima (BMG Labtech).
(§3) For inhibitor testing, the sample composition was the same as described above, except for the addition of the putative inhibitory compound. […] Inhibitory constants were determined using different concentration of H-Gln-AMC varying from ¼ Km-2 Km. Final concentration of bacterial QC was in a range between 25 nM-50 nM.
(∘) represents reaction without inhibitor. Determinations were carried out in 50 mM Tris-HCl, 50 mM NaCl pH 8.0 and 1% (v/v) DMSO at 30° C.
(§4) The following compounds were synthesized as described in the Description of synthetic methods below. Average Ki values for the inhibition of PgQC (isolated and purified as described above), TfQC, PiQC and hQC were measured using the above inhibitor assay and are shown in. Ki refers to the average Ki values measured as described above, and Std(Ki) refers to the standard deviation of Ki.

hQC = hQC (Homo sapiens (Human), UniProt Q16769); assay: Inhibitor assay for glutaminyl cyclase activity (fluorometric, H-Gln-AMC), hQC
Chain of hQC (Q16769 29-361): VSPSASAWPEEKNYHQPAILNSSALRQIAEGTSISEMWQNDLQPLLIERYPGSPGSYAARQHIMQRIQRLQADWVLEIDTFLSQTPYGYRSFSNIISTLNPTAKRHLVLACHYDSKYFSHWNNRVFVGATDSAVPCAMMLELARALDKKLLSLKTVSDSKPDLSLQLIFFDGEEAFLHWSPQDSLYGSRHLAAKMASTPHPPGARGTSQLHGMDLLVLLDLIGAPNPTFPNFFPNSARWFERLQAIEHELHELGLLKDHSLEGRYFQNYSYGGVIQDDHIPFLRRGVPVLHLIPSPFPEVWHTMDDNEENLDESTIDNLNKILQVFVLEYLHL
Method: as §1, §2, §3, §4

[1] = tested on: bacterial glutaminyl cyclases; assay: Inhibition of bacterial glutaminyl cyclases, summary statements
Method: as §3, §4

TfQC = TfQC (Tannerella forsythia, UniProt G8UMP8); assay: Inhibitor assay for bacterial glutaminyl cyclase activity (fluorometric, H-Gln-AMC), TfQC
Chain of TfQC (G8UMP8 20-333 limits assumed): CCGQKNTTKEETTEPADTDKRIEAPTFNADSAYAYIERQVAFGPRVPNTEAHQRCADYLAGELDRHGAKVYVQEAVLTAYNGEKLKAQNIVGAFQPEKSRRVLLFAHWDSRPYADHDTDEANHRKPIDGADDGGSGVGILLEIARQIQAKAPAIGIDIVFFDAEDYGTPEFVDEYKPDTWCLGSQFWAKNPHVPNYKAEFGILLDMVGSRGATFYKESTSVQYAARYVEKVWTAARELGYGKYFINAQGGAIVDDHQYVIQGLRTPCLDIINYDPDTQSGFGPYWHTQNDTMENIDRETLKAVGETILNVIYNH
Method: as §1, §2, §3, §4

[2] = average Ki ± Std(Ki), read-out: PgQC Ki
[3] = average Ki ± Std(Ki), read-out: hQC Ki
[4] = average Ki ± Std(Ki), read-out: TfQC Ki

| SMILES | Ki (PgQC; [2]) | also measured |
| --- | --- | --- |
| c1ccc(CNc2ccc3nc[nH]c3n2)cc1 [Example 1, N-Benzylimidazo[4,5-b]pyridin-5-amine] | 1940 ± 318 nM | Ki (PgQC; read-out: Ki, PgQC (Table 5)): 1950 nM; Ki (hQC; [3]): 8800 ± 127 nM; Ki (hQC; read-out: Ki, hQC (Table 5)): 8800 nM; inhibitory activity against bacterial glutaminyl cyclases (in words) [1]: significant bacQC inhibitory activity and selectivity for PgQC over hQC; Ki (TfQC; [4]): 8260 ± 361 nM; Ki (TfQC; read-out: Ki, TfQC (Table 5)): 8300 nM |
| N=C(N)NCCOc1ccc(CNc2cnc3[nH]cnc3c2)cc1 [Example 17, 1-(2-(4-((Imidazo[4,5-b]pyridin-6-ylamino)methyl)-phenoxy)ethyl)guanidine] | 14 ± 0.1 nM | Ki (hQC; [3]): 455 ± 14 nM; Ki (TfQC; [4]): 123 ± 16 nM |
| CC(C)Oc1ccc(CNc2cnc3[nH]cnc3c2)cc1 [Example 18, N-[(4-Isopropoxyphenyl)methyl]-3H-imidazo[4,5-b]pyridin-6-amine] | 86 ± 5 nM |  |
| c1ccc(Oc2cccc(CNc3cnc4[nH]cnc4c3)c2)cc1 [Example 19, N-[(3-Phenoxyphenyl)methyl]-3H-imidazo[4,5-b]pyridin-6-amine] | 15 ± 0.1 nM |  |
| c1ccc(COc2ccc(CNc3cnc4[nH]cnc4c3)cc2)cc1 [Example 20, N-[(4-Benzyloxyphenyl)methyl]-3H-imidazo[4,5-b]pyridin-6-amine] | 42 ± 4 nM |  |
| c1ccc(-c2ccc(CNc3cnc4[nH]cnc4c3)cc2)cc1 [Example 21, N-[(4-Biphenyl)methyl]-3H-imidazo[4,5-b]pyridin-6-amine] | 19 ± 1 nM |  |
| COc1cc(F)c(CNc2cnc3[nH]cnc3c2)c(F)c1 [Example 22, N-[(2,6-Difluoro-4-methoxy-phenyl)methyl]-3H-imidazo[4,5-b]pyridin-6-amine] | 30 ± 1 nM |  |
| COc1cc(CNc2cnc3[nH]cnc3c2)cc2c1OCO2 [Example 23, N-[(7-Methoxy-1,3-benzodioxol-5-yl)methyl]-3H-imidazo-[4,5-b]pyridin-6-amine] | 65 ± 13 nM |  |
| FC1(F)Oc2ccc(CNc3cnc4[nH]cnc4c3)cc2O1 [Example 24, N-[(2,2-Difluoro-1,3-benzodioxol-5-yl)methyl]-3H-imidazo-[4,5-b]pyridin-6-amine] | 67 ± 1 nM |  |
| c1ccc(-c2ccc(CNc3cnc4[nH]cnc4c3)cc2)nc1 [Example 25, N-[[4-(2-Pyridyl)phenyl]methyl]-3H-imidazo[4,5-b]pyridin-6-amine] | 38 ± 3 nM |  |
| c1nc2cc(NCc3ccc(OCCN4CCOCC4)cc3)cnc2[nH]1 [Example 26, N-[[4-(2-Morpholinoethoxy)phenyl]methyl]-3H-imidazo[4,5-b]pyridin-6-amine] | 33 ± 1 nM |  |
| c1nc2cc(NCc3ccc(N4CCOCC4)cc3)cnc2[nH]1 [Example 27, N-[(4-morpholinophenyl)methyl]-3H-imidazo[4,5-b]pyridin-6-amine] | 60 ± 2 nM |  |
| O=C(c1cc(Cl)cc(Cl)c1)N1CCc2[nH]cnc2C1 [MWT-S-00431, (3,5-dichlorophenyl-1,4,6,7-tetrahydro-5H-imidazo[4,5-c]pyridin-5-yl)methanone, reference compound] |  | Ki (PgQC; 50 mM Tris-HCl, 50 mM NaCl pH 8.0, 1% (v/v) DMSO, 30° C., read-out: Ki, inhibition of the conversion of H-Gln-AMC by PgQC): 104 nM |
